ChEMBL document CHEMBL3227918, “Synthesis and pharmacological evaluation of cis-3,4,4a,9a-tetrahydro-1H-pyrano[3,4-b]benzofuran-1-ones. Tricyclic analogues related to the antilipidemic drug clofibrate” (J Med Chem, 1979)

Experiments:
Rattus norvegicus [1] = assay: Effect on microsomal protein content in Sprague-Dawley rat at 0.4 mmol/kg, po twice daily for 7 days (reference value: 25.8 +/- 1.17 mg/g); assay type: functional
Rattus norvegicus [2] = assay: Antilipidemic activity against Sprague-Dawley rat assessed as liver cholesterol level per gram of tissue at 0.4 mmol/kg, po twice daily for 7 days (reference value: 2.96 +/- 0.42 mg); assay type: functional
Rattus norvegicus [3] = assay: Antilipidemic activity against Sprague-Dawley rat assessed as increase in liver to body weight at 0.4 mmol/kg, po twice daily for 7 days (reference value: 3.96 +/- 0.20 mg/g); assay type: functional
Rattus norvegicus [4] = assay: Antilipidemic activity against Sprague-Dawley rat assessed as increase in liver cyt b activity measured per mg of protein at 0.4 mmol/kg, po twice daily for 7 days (reference value: 0.310 +/- 0.052 nmol); assay type: functional
Rattus norvegicus [5] = assay: Antilipidemic activity against Sprague-Dawley rat assessed as liver triglyceride level per gram of tissue at 0.4 mmol/kg, po twice daily for 7 days (reference value: 3.87 +/- 0.59 mg); assay type: functional
Rattus norvegicus [6] = assay: Antilipidemic activity against Sprague-Dawley rat assessed as increase in liver NADPH:cyt c reductase activity at 0.4 mmol/kg, po twice daily for 7 days (reference value: 164 +/- 16.7 nmol/mg/min); assay type: functional
Rattus norvegicus [7] = assay: Antilipidemic activity against Sprague-Dawley rat assessed as increase in liver cyt P-450 activity measured per mg of protein at 0.4 mmol/kg, po twice daily for 7 days (reference value: 0.833 +/- 0.0644 nmol); assay type: functional
Rattus norvegicus [8] = assay: Effect on liver weight in Sprague-Dawley rat at 0.4 mmol/kg, po twice daily for 7 days (reference value: 11.8 +/- 0.93 g); assay type: ADME, organism-based; conditions: in vivo, 168 h
Rattus norvegicus [9] = assay: Antilipidemic activity against Sprague-Dawley rat assessed as increase in liver ethylmorphine N-demethylase activity measured as HCHO formation per mg/min at 0.4 mmol/kg, po twice daily for 7 days (reference value: 6.48 +/- 0.70 nmol); assay type: functional
[10] = target: T1, 3-hydroxy-3-methylglutaryl-coenzyme A reductase (Rattus norvegicus) (UniProt P51639); assay: Inhibition of Sprague-Dawley rat liver microsome HMG-CoA reductase activity assessed as mevalonic acid formation form DL-3-hydroxy-3-methylglutaryl[3-14C]coenzyme by scintillation counting (reference value: 13.2 +/- 3.30 nmol/mg/h)
T1 sequence (whole entry): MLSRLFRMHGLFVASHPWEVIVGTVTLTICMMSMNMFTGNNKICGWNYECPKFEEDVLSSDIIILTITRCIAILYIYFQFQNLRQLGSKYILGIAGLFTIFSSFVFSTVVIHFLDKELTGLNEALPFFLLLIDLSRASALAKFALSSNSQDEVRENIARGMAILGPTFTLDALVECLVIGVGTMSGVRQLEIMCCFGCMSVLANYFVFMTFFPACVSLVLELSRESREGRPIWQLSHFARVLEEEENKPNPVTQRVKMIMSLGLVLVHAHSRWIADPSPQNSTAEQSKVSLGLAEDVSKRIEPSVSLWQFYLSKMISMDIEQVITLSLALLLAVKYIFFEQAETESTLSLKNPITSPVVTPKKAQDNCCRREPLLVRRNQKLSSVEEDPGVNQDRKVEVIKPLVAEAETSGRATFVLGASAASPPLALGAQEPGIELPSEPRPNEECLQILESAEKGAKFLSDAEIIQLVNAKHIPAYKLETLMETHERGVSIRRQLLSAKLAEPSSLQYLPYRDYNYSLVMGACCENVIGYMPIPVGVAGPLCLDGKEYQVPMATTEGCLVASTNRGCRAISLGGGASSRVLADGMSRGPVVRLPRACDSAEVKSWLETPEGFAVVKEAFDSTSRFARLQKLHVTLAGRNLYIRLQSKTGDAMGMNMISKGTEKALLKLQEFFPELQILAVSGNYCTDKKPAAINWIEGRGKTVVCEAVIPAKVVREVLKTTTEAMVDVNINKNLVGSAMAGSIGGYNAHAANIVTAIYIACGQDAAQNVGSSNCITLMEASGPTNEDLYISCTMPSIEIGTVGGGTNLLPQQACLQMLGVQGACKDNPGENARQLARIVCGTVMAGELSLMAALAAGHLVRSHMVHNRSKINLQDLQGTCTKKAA

Row | Compound | Activity (Rattus norvegicus [1]) [mg/g] | Activity (Rattus norvegicus [2]) [mg] | Activity (Rattus norvegicus [3]) [%] | Activity (Rattus norvegicus [4]) [nmol] | Activity (Rattus norvegicus [5]) [mg] | Activity (Rattus norvegicus [6]) [nmol/mg/min] | Activity (Rattus norvegicus [7]) [nmol] | Activity (Rattus norvegicus [8]) [g] | Activity (Rattus norvegicus [9]) [nmol] | Activity [10] [nmol/mg/h]
1 | C[C@@]12Oc3ccc(Cl)cc3[C@@H]1CCOC2=O (relative stereo) | 31.9 | 3.19 | 4.56 | 0.421 | 7.75 | 315 | 1.62 | 14.1 | 11.1 | 8.2
2 | O=C1OCC[C@H]2c3cc(Cl)ccc3O[C@@H]12 (relative stereo) | 25.2 | 2.93 | 4.03 | 0.292 | 5.66 | 210 | 0.962 | 12.1 | 7.96 | 11
3 | CCOC(=O)C(C)(C)Oc1ccc(Cl)cc1 [CLOFIBRATE] | 29 | 2.59 | 4.84 | 0.293 | 4.65 | 246 | 1.06 | 15.1 | 7.82 | 11.3
